Experimental data published in patent publication US20260137819A1 (Radionetics Oncology, Inc., priority 2022, published 2026).

What follows are compounds tested against T1, human follicle-stimulating hormone receptor (FSHR) (Homo sapiens, UniProt P23945) (assay: Measurement of agonist cAMP production by activation of human FSHR). Conditions: CHO-K1 human FSHR cells, 30 minutes at 37° C., HTRF cAMP kit; read-out: hFSHR Agonist cAMP EC50.
T1 construct: host or cells: CHO-K1
T1 sequence (P23945 18-695): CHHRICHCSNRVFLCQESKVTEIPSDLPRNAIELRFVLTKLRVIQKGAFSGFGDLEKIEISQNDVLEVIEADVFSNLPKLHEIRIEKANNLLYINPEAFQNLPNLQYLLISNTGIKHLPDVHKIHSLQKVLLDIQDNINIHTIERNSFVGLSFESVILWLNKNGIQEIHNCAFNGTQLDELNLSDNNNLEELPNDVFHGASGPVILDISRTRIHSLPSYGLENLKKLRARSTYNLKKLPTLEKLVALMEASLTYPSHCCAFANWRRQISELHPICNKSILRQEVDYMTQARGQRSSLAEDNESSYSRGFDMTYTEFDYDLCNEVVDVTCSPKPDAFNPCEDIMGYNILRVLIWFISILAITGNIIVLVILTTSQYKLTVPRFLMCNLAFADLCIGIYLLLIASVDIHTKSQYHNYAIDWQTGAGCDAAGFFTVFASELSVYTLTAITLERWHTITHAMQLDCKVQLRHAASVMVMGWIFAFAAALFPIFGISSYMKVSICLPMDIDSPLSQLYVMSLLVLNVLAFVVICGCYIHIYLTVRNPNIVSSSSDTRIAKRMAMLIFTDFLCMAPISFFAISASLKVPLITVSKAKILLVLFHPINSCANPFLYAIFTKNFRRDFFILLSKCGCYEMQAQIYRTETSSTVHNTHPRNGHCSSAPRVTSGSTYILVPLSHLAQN
Assay type: cell-based
In short: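 cAMP output was measured by HTRF after 30 min at 37 °C agonist exposure (0–10,000 nM final) in stably FSHR-transfected CHO-K1 cells. Lysate cAMP was read off a standard curve and fitted to obtain half-maximal EC50.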

`COc1cc2c(cc1-c1cccc(NC(=O)CCOCCOCCOCCOCCNC(=O)[C@H](CS(=O)(=O)O)NC(=O)CN3CCN(CC(=O)O)CCN(CC(=O)O)CCN(CC(=O)O)CC3)c1)-c1c(c(C(=O)N3CCOCC3(C)C)nn1-c1cc(Cl)cc(Cl)c1)CO2` [Compound 26A, indium (III) (R)-2,2′,2″-(10-(21-((3-(1-(3,5-dichlorophenyl)-3-(3,3-dimethylmorpholine-4-carbonyl)-7-methoxy-1,4-dihydrochromeno[4,3-c]pyrazol-8-yl)phenyl)amino)-2,5,21-trioxo-4-(sulfomethyl)-9,12,15, 18-tetraoxa-3,6-diazahenicosyl)-1,4,7,10-tetraazacyclododecane-1,4,7-triyl)triacetate] and `COc1cc2c(cc1-c1cccc(NC(=O)CCOCCOCCOCCOCCNC(=O)[C@@H](CCC(=O)O)NC(=O)CN3CCN(CC(=O)O)CCN(CC(=O)O)CCN(CC(=O)O)CC3)c1)-c1c(c(C(=O)N3CCOCC3(C)C)nn1-c1cc(Cl)cc(Cl)c1)CO2` [Compound 27, (R)-2,2′,2″-(10-(4-(2-carboxyethyl)-21-((3-(1-(3,5-dichlorophenyl)-3-(3,3-dimethylmorpholine-4-carbonyl)-7-methoxy-1,4-dihydrochromeno|4,3-clpyrazol-8-yl)phenyl)amino)-2,5,21-trioxo-9,12,15,18-tetraoxa-3,6-diazahenicosyl)-1,4,7,10-tetraazacyclododecane-1,4,7-triyl)triacetic acid] cannot be ordered by EC50: less than 10 nM for the first, less than 10 nM for the second.

First: COCCOCCOCCOCCOCCOCCC(=O)N[C@H](CC(=O)N1CC2(CCCN2C(=O)CNC(=O)CN2CCN(CC(=O)O)CCN(CC(=O)O)CCN(CC(=O)O)CC2)C1)C(=O)Nc1cccc(-c2cc3c(cc2OC)OCc2c(C(=O)N4CCOCC4(C)C)nn(-c4cc(Cl)cc(Cl)c4)c2-3)c1 [Compound 25, (R)-2,2′,2″-(10-(2-((2-(2-(22-((3-(1-(3,5-dichlorophenyl)-3-(3,3-dimethylmorpholine-4-carbonyl)-7-methoxy-1,4-dihydrochromeno[4,3-c]pyrazol-8-yl)phenyl)carbamoyl)-20-oxo-2,5,8,11,14,17-hexaoxa-21-azatetracosan-24-oyl)-2,5-diazaspiro[3.4]octan-5-yl)-2-oxoethyl)amino)-2-oxoethyl)-1,4,7,10-tetraazacyclododecane-1,4,7-triyl)triacetic acid]
Second: COc1cc2c(cc1-c1cccc(NC(=O)CCOCCOCCOCCOCCOCCOCCNC(=O)CN3CCN(CC(=O)O)CCN(CC(=O)O)CCN(CC(=O)O)CC3)c1)-c1c(c(C(=O)N3CCOCC3(C)C)nn1-c1cc(Cl)cc(Cl)c1)CO2 [Compound 16A]
The EC50 of the first is higher: greater than 100 nM for the first, less than 10 nM for the second. The second is the more potent here.

First: COc1cc2c(cc1-c1cccc(NC(=O)C3CCN(C(=O)CN4CCN(CC(=O)O)CCN(CC(=O)O)CCN(CC(=O)O)CC4)CC3)c1)-c1c(c(C(=O)N3CCOCC3(C)C)nn1-c1cc(Cl)cc(Cl)c1)CO2 [Compound 9, 2,2′,2″-(10-(2-(4-((3-(1-(3,5-dichlorophenyl)-3-(3,3-dimethylmorpholine-4-carbonyl)-7-methoxy-1,4-dihydrochromeno[4,3-c]pyrazol-8-yl)phenyl)carbamoyl)piperidin-1-yl)-2-oxoethyl)-1,4,7,10-tetraazacyclododecane-1,4,7-triyl)triacetic acid]
Second: COc1cc2c(cc1-c1cccc(NC(=O)CCNC(=O)CN3CCC(NC(=O)CN4CCN(CC(=O)O)CCN(CC(=O)O)CCN(CC(=O)O)CC4)CC3)c1)-c1c(c(C(=O)N3CCOCC3(C)C)nn1-c1cc(Cl)cc(Cl)c1)CO2 [Compound 36, 2,2′,2″-(10-(2-((1-(2-((3-((3-(1-(3,5-dichlorophenyl)-3-(3,3dimethylmorpholine-4-carbonyl)-7-methoxy-1,4-dihydrochromeno|4,3-clpyrazol-8-yl)phenyl)amino)-3-oxopropyl)amino)-2-oxoethyl)piperidin-4-yl)amino)-2-oxoethyl)-1,4,7,10-tetraazacyclododecane-1,4,7-triyl)triacetic acid]
The EC50 of the first is higher: 10 to 100 nM for the first, less than 10 nM for the second.

Compared with `COc1cc2c(cc1-c1cccc(NC(=O)NCCOCCOCCOCCOCCNC(=O)CN3CCN(CC(=O)O)CCN(CC(=O)O)CCN(CC(=O)O)CC3)c1)-c1c(c(C(=O)N(C)C(C)(C)C)nn1-c1cc(Cl)cc(Cl)c1)CO2` [Compound 2, 2,2′,2″-(10-(1-((3-(3-(tert-butyl(methyl)carbamoyl)-1-(3,5-dichlorophenyl)-7-methoxy-1,4-dihydrochromeno|4,3-c|pyrazol-8-yl)phenyl)amino)-1,18-dioxo-5,8,11,14-tetraoxa-2,17-diazanonadecan-19-yl)-1,4,7,10-tetraazacyclododecane-1,4,7-triyl)triacetic acid], `COc1cc2c(cc1-c1cccc(NC(=O)NCCOCCOCCOCCOCCNC(=O)CN3CCN(CC(=O)O)CCN(CC(=O)O)CCN(CC(=O)O)CC3)c1)-c1c(c(C(=O)N3CCOCC3(C)C)nn1-c1cc(Cl)cc(Cl)c1)CO2` [Compound 8, 2,2′,2″-(10-(1-((3-(1-(3,5-dichlorophenyl)-3-(3,3-dimethylmorpholine-4-carbonyl)-7-methoxy-1,4-dihydrochromeno[4,3-c]pyrazol-8-yl)phenyl)amino)-1,18-dioxo-5,8,11,14-tetraoxa-2,17-diazanonadecan-19-yl)-1,4,7,10-tetraazacyclododecane-1,4,7-triyl)triacetic acid] is higher in EC50: less than 10 nM for the first, 10 to 100 nM for the second.

First: COc1cc2c(cc1-c1cncc(OCCCNC(=O)[C@@H](CCC(=O)O)NC(=O)CCNC(=O)CN3CCN(CC(=O)O)CCN(CC(=O)O)CCN(CC(=O)O)CC3)c1)-c1c(c(C(=O)N3CCCN(C(=O)C4CCC4)CC3)nn1-c1cccs1)CO2 [Compound 77]
Second: COc1cc2c(cc1-c1cccc(NC(=O)NCCNC(=O)CCOCCNC(=O)CN3CCN(CC(=O)O)CCN(CC(=O)O)CCN(CC(=O)O)CC3)c1)-c1c(c(C(=O)N3CCOCC3(C)C)nn1-c1cc(Cl)cc(Cl)c1)CO2 [Compound 10, 2,2′,2″-(10-(1-((3-(1-(3,5-dichlorophenyl)-3-(3,3-dimethylmorpholine-4-carbonyl)-7-methoxy-1,4-dihydrochromeno[4,3-c]pyrazol-8-yl)phenyl)amino)-1,6,13-trioxo-9-oxa-2,5,12-triazatetradecan-14-yl)-1,4,7,10-tetraazacyclododecane-1,4,7-triyl)triacetic acid]
The EC50 of the first is higher: 10 to 100 nM for the first, less than 10 nM for the second. The second is the more potent here.

Compared with `COc1cc2c(cc1-c1cccc(/C(C)=N/OCCNC(=O)CN(C)C(=O)CN(C)C(=O)CN3CCN(CC(=O)O)CCN(CC(=O)O)CCN(CC(=O)O)CC3)c1)-c1c(c(C(=O)N3CCOCC3(C)C)nn1-c1cc(Cl)cc(Cl)c1)CO2` [Compound 42, (E)-2,2′,2″-(10-(1-(3-(1-(3,5-dichlorophenyl)-3-(3,3-dimethylmorpholine-4carbonyl)-7-methoxy-1,4-dihydrochromeno|4,3-c|pyrazol-8-yl)phenyl)-9,12-dimethyl-7,10,13-trioxo-3-oxa-2,6,9,12-tetraazatetradec-1-en-14-yl)-1,4,7,10-tetraazacyclododecane-1,4,7-triyl)triacetic acid], `COc1cc2c(cc1-c1cccc(NC(=O)CCOCCOCCNC(=O)CN3CCN(CC(=O)O)CCN(CC(=O)O)CCN(CC(=O)O)CC3)c1)-c1c(c(C(=O)N3CCOCC3(C)C)nn1-c1cc(Cl)cc(Cl)c1)CO2` [Compound 19, 2,2′,2″-(10-(2-((2-(2-(3-((3-(1-(3,5-dichlorophenyl)-3-(3,3-dimethylmorpholine-4-carbonyl)-7-methoxy-1,4-dihydrochromeno[4,3-c]pyrazol-8-yl)phenyl)amino)-3-oxopropoxy)ethoxy)ethyl)amino)-2-oxoethyl)-1,4,7,10-tetraazacyclododecane-1,4,7-triyl)triacetic acid] is lower in EC50: 10 to 100 nM for the first, less than 10 nM for the second.

First: COc1cc2c(cc1-c1cccc(NC(=O)C(CNC(=O)CCNC(=O)CN3CCN(CC(=O)O)CCN(CC(=O)O)CCN(CC(=O)O)CC3)CNC(=O)CCNC(=O)CN3CCN(CC(=O)O)CCN(CC(=O)O)CCN(CC(=O)O)CC3)c1)-c1c(c(C(=O)N3CCOCC3(C)C)nn1-c1cc(Cl)cc(Cl)c1)CO2 [Compound 35]
Second: COc1cc2c(cc1-c1cccc(NC(=O)CCNC(=O)[C@H](CS(=O)(=O)O)NC(=O)CN3CCN(CC(=O)O)CCN(CC(=O)O)CCN(CC(=O)O)CC3)c1)-c1c(c(C(=O)N3CCOCC3(C)C)nn1-c1cc(Cl)cc(Cl)c1)CO2 [Compound 37, (R)-2,2′,2″-(10-(2-((1-((3-((3-(1-(3,5-dichlorophenyl)-3-(3,3dimethylmorpholine-4-carbonyl)-7-methoxy-1,4-dihydrochromeno|4,3-clpyrazol-8-yl)phenyl)amino)-3-oxopropyl)amino)-1-oxo-3-sulfopropan-2-yl)amino)-2-oxoethyl)-1,4,7,10-tetraazacyclododecane-1,4,7-triyl)triacetic acid]
The EC50 of the first is higher: greater than 100 nM for the first, 10 to 100 nM for the second.

First: COc1cc2c(cc1-c1cccc(NC(=O)NCCOCCOCCOCCOCCOCCOCCNC(=O)CN3CCN(CC(=O)O)CCN(CC(=O)O)CCN(CC(=O)O)CC3)c1)-c1c(c(C(=O)N3CCOCC3(C)C)nn1-c1cc(Cl)cc(Cl)c1)CO2 [Compound 7]
Second: COc1cc2c(cc1-c1cccc(NC(=O)CN3CCC(NC(=O)[C@H](CS(=O)(=O)O)NC(=O)CN4CCN(CC(=O)O)CCN(CC(=O)O)CCN(CC(=O)O)CC4)CC3)c1)-c1c(c(C(=O)N3CCOCC3(C)C)nn1-c1cc(Cl)cc(Cl)c1)CO2 [Compound 66]
The EC50 of the first is lower: less than 10 nM for the first, 10 to 100 nM for the second. The first is the more potent here.
